The record followed here is patent JP2008297320A (priority 2000, dated 2001).

A short description of this data set: Test Example 2: persistence of Compound B concentration in mouse lung tissue (14C-labelled compounds). The data set is classed as in vivo. To be noted: Balb/C mice (female), up to 72 h.
The mark [1] stands for this setting: intranasal 14C-labelled Compound A 0.3 and 1 μmol/kg.

The structures appear in SMILES notation.

`CO[C@@H]([C@@H]1OC(C(=O)O)=C[C@H](NC(=N)N)[C@H]1NC(C)=O)[C@H](O)CO` [化合物B, 5-アセタミド-4-グアニジノ-2、3、4、5-テトラデオキシ-7-メトキシ-D-グリセロ-D-ガラクト-ノン-2-エノピラソン酸, reference compound]: under “intranasal 14C-labelled Compound B 4 μmol/kg”, the “disappearance of Compound B from lung tissue” value is on record as “速やかに肺組織から消失した”. In the case of `CCCCCCCC(=O)OC[C@@H](O)[C@@H](OC)[C@@H]1OC(C(=O)O)=C[C@H](NC(=N)N)[C@H]1NC(C)=O` [化合物A, 5-アセタミド-4-グアニジノ-9-O-オクタノイル-2、3、4、5-テトラデオキシ-7-メトキシ-D-グリセロ-D-ガラクト-ノン-2-エノピラソン酸], under setting [1], the “conversion of Compound A (ester derivative) to Compound B (active form)” value is “速やかに変換される” and the “persistence of Compound B (active form) concentration in lung tissue after administration of Compound A” value is reported as “長期にわたり持続した”.
